# Measured values published in patent US7312227B2, “Compositions useful as inhibitors of JAK and other protein kinases” (Vertex Pharmaceuticals Incorporated, priority 2002, dated 2007).
# Target: T1, JAK3 (Homo sapiens, UniProt P52333)
# T1 sequence (P52333 1-1124): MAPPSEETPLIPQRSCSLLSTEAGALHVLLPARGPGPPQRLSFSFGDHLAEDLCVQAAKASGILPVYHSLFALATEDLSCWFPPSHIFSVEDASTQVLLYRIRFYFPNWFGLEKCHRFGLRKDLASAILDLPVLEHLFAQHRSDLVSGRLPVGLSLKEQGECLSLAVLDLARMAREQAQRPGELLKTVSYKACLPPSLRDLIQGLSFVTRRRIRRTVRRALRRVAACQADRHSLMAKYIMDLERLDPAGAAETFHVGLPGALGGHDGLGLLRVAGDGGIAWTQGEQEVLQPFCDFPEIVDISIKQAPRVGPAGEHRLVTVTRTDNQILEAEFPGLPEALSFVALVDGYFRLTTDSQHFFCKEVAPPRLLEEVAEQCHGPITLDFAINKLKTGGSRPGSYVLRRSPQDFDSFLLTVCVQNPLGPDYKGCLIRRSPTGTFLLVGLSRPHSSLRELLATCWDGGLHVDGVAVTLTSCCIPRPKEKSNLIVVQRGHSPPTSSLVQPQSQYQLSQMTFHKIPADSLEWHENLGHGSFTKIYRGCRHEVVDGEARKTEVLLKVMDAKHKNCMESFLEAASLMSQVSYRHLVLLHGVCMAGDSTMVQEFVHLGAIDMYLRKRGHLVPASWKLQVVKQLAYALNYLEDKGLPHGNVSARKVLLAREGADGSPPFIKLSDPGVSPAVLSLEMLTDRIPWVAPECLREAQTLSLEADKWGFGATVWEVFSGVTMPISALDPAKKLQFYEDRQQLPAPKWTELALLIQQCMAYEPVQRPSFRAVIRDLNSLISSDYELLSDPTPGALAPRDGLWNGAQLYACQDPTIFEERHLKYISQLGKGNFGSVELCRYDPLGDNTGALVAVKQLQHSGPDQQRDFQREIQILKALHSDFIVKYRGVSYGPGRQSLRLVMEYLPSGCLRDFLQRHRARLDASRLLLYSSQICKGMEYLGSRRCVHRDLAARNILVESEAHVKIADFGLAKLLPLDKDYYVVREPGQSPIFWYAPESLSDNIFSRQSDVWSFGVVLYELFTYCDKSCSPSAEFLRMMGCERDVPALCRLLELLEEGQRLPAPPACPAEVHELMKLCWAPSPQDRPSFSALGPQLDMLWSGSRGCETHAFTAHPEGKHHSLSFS
# Assay: JAK3 inhibition assay
# Format: biochemical
# Settings: 2 μM ATP, Poly (Glu, Ala, Tyr) 6:3:1 coated plates, 60 minutes at 30° C.
# Procedure: Compound inhibition of JAK was assayed by the method described by G. R. Brown, et al, Bioorg. Med. Chem. Lett. 2000, vol. 10, pp 575-579 in the following manner. Into Maxisorb plates, previously coated at 4° C. with Poly (Glu, Ala, Tyr) 6:3:1 then washed with phosphate buffered saline 0.05% and Tween (PBST), was added 2 μM ATP, 5 mM MgCl2, and a solution of compound in DMSO. The reaction was started with JAK enzyme and the plates incubated for 60 minutes at 30° C. The plates were then washed with PBST, 100 μL HRP-Conjugated 4G10 antibody was added, and the plate incubated for 90 minutes at 30° C. The plate was again washed with PBST, 100 μL TMB solution is added, and the plates were incubated for another 30 minutes at 30° C. Sulfuric acid (100 μL of 1M) was added to stop the reaction and the plate is read at 450 nm, and Ki values were determined.
row,SMILES,Ki
1,NS(=O)(=O)c1cccc(Nc2nccc(-c3cccc(NC(=O)c4ccco4)c3)n2)c1 [IV-A(i)-1],≤ 1000 nM
2,COc1cccc(Nc2nccc(-c3cccc(N(C)C(=O)c4ccco4)c3)n2)c1 [IV-A(i)-2],≤ 1000 nM
3,O=C(Nc1cccc(-c2ccnc(Nc3cccc(O)c3)n2)c1)c1ccco1 [IV-A(i)-4],≤ 1000 nM
4,Nc1cccc(Nc2nccc(-c3cccc(NC(=O)c4ccccn4)c3)n2)c1 [IV-A(i)-5],≤ 1000 nM
5,Nc1cccc(Nc2nccc(-c3cccc(NC(=O)c4cccs4)c3)n2)c1 [IV-A(i)-6],≤ 1000 nM
6,NS(=O)(=O)c1cccc(Nc2nccc(-c3ccc(NC(=O)COc4ccccc4)cc3)n2)c1 [IV-B(i)-1],≤ 1000 nM
7,Nc1cccc(Nc2nccc(-c3ccc(NC(=O)c4cccs4)cc3)n2)c1 [IV-B(i)-2],≤ 1000 nM
8,Nc1cccc(Nc2nccc(-c3ccc(NC(=O)CN4CCCC(CO)C4)cc3)n2)c1 (centres unmarked) [IV-B(i)-6],≤ 1000 nM
9,Nc1cccc(Nc2nccc(-c3ccc(NC(=O)CN4CCC(CO)CC4)cc3)n2)c1 [IV-B(i)-7],≤ 1000 nM
10,Nc1cccc(Nc2nccc(-c3ccc(NC(=O)CN4CCCC4CO)cc3)n2)c1 (centres unmarked) [IV-B(i)-9],≤ 1000 nM
11,O=C(NCC1CCCO1)c1cccc(-c2ccnc(Nc3ccccc3)n2)c1 (centres unmarked) [IV-C(i)-15],≤ 1000 nM

# Other lines, results leading:
row,Ki,SMILES
1,≤ 1000 nM,Nc1cccc(Nc2nccc(-c3ccc(NC(=O)COc4ccccc4)cc3)n2)c1 [IV-B(i)-3]
2,≤ 1000 nM,Nc1cccc(Nc2nccc(-c3ccc(NC(=O)c4ccco4)cc3)n2)c1 [IV-B(i)-4]
3,≤ 1000 nM,Nc1cccc(Nc2nccc(-c3ccc(NC(=O)CN4CCOCC4)cc3)n2)c1 [IV-B(i)-5]
4,≤ 1000 nM,Nc1cccc(Nc2nccc(-c3ccc(NC(=O)CN4CCC(O)CC4)cc3)n2)c1 [IV-B(i)-8]
5,≤ 1000 nM,O=C(Nc1ccc(-c2ccnc(Nc3cccc(O)c3)n2)cc1)c1cccs1 [IV-B(i)-10]
6,≤ 1000 nM,O=C(COc1ccccc1)Nc1ccc(-c2ccnc(Nc3cccc(O)c3)n2)cc1 [IV-B(i)-11]
7,≤ 1000 nM,O=C(NCc1ccccc1)c1ccc(-c2ccnc(Nc3ccccc3)n2)cc1 [IV-D(i)-2]

# Target: CDK-2/Cyclin A (Homo sapiens, UniProt P24941)
# Assay: CDK2 inhibition assay (coupled enzyme assay)
# Format: biochemical
# Settings: 100 μM ATP, 100 μM peptide, 25 nM CDK-2/Cyclin A, 30° C.
# Procedure: Compounds were screened for their ability to inhibit CDK-2/Cyclin A using a standard coupled enzyme assay (Fox et al (1998) Protein Sci 7, 2249). Reactions were carried out in 100 mM HEPES pH 7.5, 10 mM MgCl2, 25 mM NaCl, 1 mM DTT and 1.5% DMSO. Final substrate concentrations in the assay were 100 μM ATP (Sigma chemicals) and 100 μM peptide (American Peptide, Sunnyvale, Calif.). Assays were carried out at 30° C. and 25 nM CDK-2/Cyclin A. Final concentrations of the components of the coupled enzyme system were 2.5 mM phosphoenolpyruvate, 350 μM NADH, 30 μg/ml pyruvate kinase and 10 μg/ml lactate dehydrogenase.
# An assay stock buffer solution was prepared containing all of the reagents listed above, with the exception of CDK-2/Cyclin A, DTT and the test compound of interest. 56 μl of the test reaction was placed in a 384 well plate followed by addition of 1 μl of 2 mM DMSO stock containing the test compound (final compound concentration 30 μM). The plate was preincubated for ˜10 minutes at 30° C. and the reaction initiated by addition of 10 μl of enzyme (final concentration 25 nM). Rates of reaction were obtained using a BioRad Ultramark plate reader (Hercules, Calif.) over a 5 minute read time at 30° C. and Ki values were determined.
row,SMILES,Ki
1,Nc1cccc(Nc2nccc(-c3ccc(NC(=O)c4cccs4)cc3)n2)c1 [IV-B(i)-2],≤ 1000 nM
2,O=C(NC1CCCCC1)c1ccc(-c2ccnc(Nc3ccccc3)n2)cc1 [IV-D(i)-4],≤ 1000 nM

# Now from value to compound:
row,Ki,SMILES
1,≤ 1000 nM,O=C(COc1ccccc1)Nc1ccc(-c2ccnc(Nc3cccc(O)c3)n2)cc1 [IV-B(i)-11]
2,≤ 1000 nM,Cc1ccc(-c2ccnc(Nc3ccccc3)n2)cc1C(=O)Nc1ccccc1 [IV-C(i)-2]
3,≤ 1000 nM,Cc1ccc(-c2ccnc(Nc3ccccc3)n2)cc1C(=O)NC1CCCCC1 [IV-C(i)-3]
4,≤ 1000 nM,Cc1ccc(-c2ccnc(Nc3ccccc3)n2)cc1C(=O)NCc1ccccc1 [IV-C(i)-4]

# Target: JNK3 (Homo sapiens, UniProt P53779)
# Assay: JNK3 inhibition assay (spectrophotometric coupled-enzyme assay)
# Format: biochemical
# Settings: 10 nM activated JNK3, 10 μM ATP, 200 μM EGF receptor peptide, 30° C.
# Procedure: Compounds were assayed for the inhibition of JNK3 by a spectrophotometric coupled-enzyme assay. In this assay, a fixed concentration of activated JNK3 (10 nM) was incubated with various concentrations of a potential inhibitor dissolved in DMSO for 10 minutes at 30° C. in a buffer containing 0.1 M HEPES buffer, pH 7.5, containing 10 mM MgCl2, 2.5 mM phosphoenolpyruvate, 200 μM NADH, 150 μg/mL pyruvate kinase, 50 μg/mL lactate dehydrogenase, and 200 μM EGF receptor peptide. The EGF receptor is a phosphoryl acceptor in the JNK3-catalyzed kinase reaction. The reaction was initiated by the addition of 10 μM ATP and the assay plate is inserted into the spectrophotometer's assay plate compartment that was maintained at 30° C. The decrease of absorbance at 340 nm was monitored as a function of time. The rate data as a function of inhibitor concentration was fitted to competitive inhibition kinetic model to determine the Ki.
# Chain of JNK3 (P53779 whole entry): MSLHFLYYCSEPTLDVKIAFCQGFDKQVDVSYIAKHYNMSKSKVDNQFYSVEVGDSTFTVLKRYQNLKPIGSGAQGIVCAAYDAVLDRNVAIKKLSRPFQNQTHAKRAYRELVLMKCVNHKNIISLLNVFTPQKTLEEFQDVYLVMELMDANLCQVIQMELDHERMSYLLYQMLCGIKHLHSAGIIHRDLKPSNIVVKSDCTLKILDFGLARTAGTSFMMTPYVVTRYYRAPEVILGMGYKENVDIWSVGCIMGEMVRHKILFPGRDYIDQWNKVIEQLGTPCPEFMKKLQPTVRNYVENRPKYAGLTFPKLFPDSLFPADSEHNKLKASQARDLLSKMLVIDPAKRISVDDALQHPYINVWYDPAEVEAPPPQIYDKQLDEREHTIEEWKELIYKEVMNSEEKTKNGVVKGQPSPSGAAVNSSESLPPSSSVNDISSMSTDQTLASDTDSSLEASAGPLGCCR
row,Ki,SMILES
1,≤ 1000 nM,Nc1cccc(Nc2nccc(-c3ccc(NC(=O)c4cccs4)cc3)n2)c1 [IV-B(i)-2]
2,≤ 1000 nM,O=C(COc1ccccc1)Nc1ccc(-c2ccnc(Nc3cccc(O)c3)n2)cc1 [IV-B(i)-11]
